Source: patent US20210087217A1, “NUCLEOTIDE HEMI-SULFATE SALT FOR THE TREATMENT OF HEPATITIS C VIRUS” (Atea Pharmaceuticals, Inc., priority 2017, published 2021)
“Also recorded” adds a separate entry of the source. Where a name gives a salt, the structure may show the parent alone.

Key:
[1] = Heart and liver tissue levels of active triphosphate 4 hours after oral Compound 2, monkeys; type: in vivo, monkey; details: 4 hours after oral dose of Compound 2
Experimental: High levels of the active TP were measured in the liver of all species tested.

[2] = Plasma levels of metabolites following single oral dose of Compound 2, rats; type: in vivo, rat; details: single oral dose of Compound 2
[3] = Plasma levels of metabolites following single oral doses of Compound 2, monkeys; type: in vivo, monkey; details: for AUC(0-t) / Cmax / Tmax: monkey, plasma, po
[4] = Chemical stability of Compound 2 at 25 and 40° C. over 6 months; type: physicochemical
Experimental: The container closure system for the study was a combination medicinal valve bag with a pharmaceutical laminated film over the pouch and desiccant silica gel between the two layers. […] Bags were then stored at 25° C./60% RH (relative humidity) and 40° C./75% RH (relative humidity). Organic purity, water content, ^1HNMR, DSC and Raman were measured at Time 0, Month 1, Month 2, Month 3 and Month 6.
The sample was dissolved in acetonitrile-water (90:10) (v/v). The gradient method is shown below.
At 25° C., the percent of degradation product increased from 0.03% at Day 0 to 0.08% after 6 months. At 40° C., the percent of degradation product increased from 0.03% to 0.39%. Over the course of 6 months, the percent of water increased approximately 0.6% at 25° C. and increased approximately 0.7% at 40° C.

[5] = Solubility in biorelevant test medias (water, SGF, FaSSIF, FeSSIF)
[6] = Storage of Compound 1 forms and amorphous salts at 25° C./60% RH for 14 days (HPLC, XRPD, observation)
Experimental: This initial characterization was followed by storage at 25° C./60% relative humidity (RH) for 14 days with analysis by […] and XRPD after 7 and 14 days. FIG. 4A is the XRPD after 14 days at 25° C./60% (RH).
The samples were then frozen with the solvent removed by lyophilization.
The samples were then subjected to storage at 25° C./60% relative humidity (RH) for 14 days with analysis by HPLC and XRPD after 7 (FIG. 4B) and 14 days (FIG. 5A).

[7] = Plasma levels of metabolites following single oral doses of Compound 2, dogs; type: in vivo, dog; details: for AUC(0-t) / Cmax / Tmax: dog, plasma, po
[8] = Head-to-head comparison of plasma levels in dogs dosed with Compound 1 and Compound 2; type: in vivo, dog; details: dosed Compound 1 25 mg/kg or Compound 2 30 mg/kg, normalized to a dose of 25 mg/kg
Experimental: A head-to-head comparison of dogs dosed with Compound 1 and Compound 2 was conducted.

HCV RNA (GT1-HCV) = assay: Plasma HCV RNA reduction in GT1-HCV infected patients (Part B); type: in vivo
Experimental: Plasma HCV RNA determinations were performed through the use of a validated commercial assay. Baseline was defined as the mean of Day −1 and Day 1 (pre-dose). […] The mean maximum HCV RNA reduction 24 hours post-dose following a single 300 mg dose was 1.7 log10 IU/mL and this compares to a-2 log10 IU/mL reduction after 1 day of 400 mg of sofosbuvir monotherapy in GT1a HCV-infected subjects. The mean maximum HCV RNA reduction 24 hours post-dose following a single 100 mg dose was 0.8 log10 IU/mL. The mean maximum HCV RNA reduction was 2.2 log10 IU/mL following a single 400 mg dose.

CNc1nc(N)nc2c1ncn2[C@@H]1O[C@H](CO[P@@](=O)(N[C@@H](C)C(=O)OC(C)C)Oc2ccccc2)[C@@H](O)[C@@]1(C)F [Compound 2, hemi-sulfate salt of isopropyl((S)-(((2R,3R,4R,5R)-5-(2-amino-6-(methylamino)-9H-purin-9-yl)-4-fluoro-3-hydroxy-4-methyltetrahydrofuran-2-yl)methoxy)(phenoxy)phosphoryl)-L-alaninate]
Active TP (metabolite 1-6) level in heart [1]: unquantifiable levels | Active TP (metabolite 1-6) level in liver [1]: High levels | Compound 1 exposure [2]: low levels | Metabolite 1-7 levels [2]: high levels | AUC(0-t) ([3]; 30 mg/kg): 176 ng·h/mL | Cmax ([3]; 30 mg/kg): 63.5 ng/mL | Tmax ([3]; 30 mg/kg): 0.5 to 2 h | AUC(0-t) ([3]; 100 mg/kg): 1100 ng·h/mL | Cmax ([3]; 100 mg/kg): 783 ng/mL | Tmax ([3]; 100 mg/kg): 1 to 2 h | AUC(0-t) ([3]; 300 mg/kg): 1600 ng·h/mL | Cmax ([3]; 300 mg/kg): 501 ng/mL | Tmax ([3]; 300 mg/kg): 204 h | Vomiting (animals affected) ([3]; monkeys, high dose group): 1/5 | Dose proportionality of Compound 1 exposures ([3]; monkeys, single oral doses of Compound 2): roughly dose-proportional | Increase of the percent of water over 6 months ([4]; 25° C.): approximately 0.6% | Maximum Impurity Percent ([4]; 25° C./60% RH, Day 0): 0.12% | Percent Purity ([4]; 25° C./60% RH, Day 0): 99.82% | Percent Water ([4]; 25° C./60% RH, Day 0): 1.2% | 1HNMR compared with Day 0 ([4]; 25° C./60% RH, Month 1): The same as | DSC compared with Day 0 ([4]; 25° C./60% RH, Month 1): The same as | Maximum Impurity Percent ([4]; 25° C./60% RH, Month 1): 0.12% | Percent Purity ([4]; 25° C./60% RH, Month 1): 99.77% | Percent Water ([4]; 25° C./60% RH, Month 1): 1.9% | Raman compared with Day 0 ([4]; 25° C./60% RH, Month 1): The same as | 1HNMR compared with Day 0 ([4]; 25° C./60% RH, Month 2): The same as | DSC compared with Day 0 ([4]; 25° C./60% RH, Month 2): The same as | Maximum Impurity Percent ([4]; 25° C./60% RH, Month 2): 0.12% | Percent Purity ([4]; 25° C./60% RH, Month 2): 99.75% | Percent Water ([4]; 25° C./60% RH, Month 2): 1.8% | Raman compared with Day 0 ([4]; 25° C./60% RH, Month 2): The same as | 1HNMR compared with Day 0 ([4]; 25° C./60% RH, Month 3): The same as | DSC compared with Day 0 ([4]; 25° C./60% RH, Month 3): The same as | Maximum Impurity Percent ([4]; 25° C./60% RH, Month 3): 0.12% | Percent Purity ([4]; 25° C./60% RH, Month 3): 99.75% | Percent Water ([4]; 25° C./60% RH, Month 3): 1.8% | Raman compared with Day 0 ([4]; 25° C./60% RH, Month 3): The same as | 1HNMR compared with Day 0 ([4]; 25° C./60% RH, Month 6): The same as | DSC compared with Day 0 ([4]; 25° C./60% RH, Month 6): The same as | Maximum Impurity Percent ([4]; 25° C./60% RH, Month 6): 0.13% | Percent Purity ([4]; 25° C./60% RH, Month 6): 99.74% | Percent Water ([4]; 25° C./60% RH, Month 6): 1.8% | Raman compared with Day 0 ([4]; 25° C./60% RH, Month 6): The same as | Increase of the percent of water over 6 months ([4]; 40° C.): approximately 0.7% | Maximum Impurity Percent ([4]; 40° C./75% RH, Day 0): 0.12% | Percent Purity ([4]; 40° C./75% RH, Day 0): 99.82% | Percent Water ([4]; 40° C./75% RH, Day 0): 1.2% | 1HNMR compared with Day 0 ([4]; 40° C./75% RH, Month 1): The same as | DSC compared with Day 0 ([4]; 40° C./75% RH, Month 1): The same as | Maximum Impurity Percent ([4]; 40° C./75% RH, Month 1): 0.12% | Percent Purity ([4]; 40° C./75% RH, Month 1): 99.71% | Percent Water ([4]; 40° C./75% RH, Month 1): 2.0% | Raman compared with Day 0 ([4]; 40° C./75% RH, Month 1): The same as | 1HNMR compared with Day 0 ([4]; 40° C./75% RH, Month 2): The same as | DSC compared with Day 0 ([4]; 40° C./75% RH, Month 2): The same as | Maximum Impurity Percent ([4]; 40° C./75% RH, Month 2): 0.12% | Percent Purity ([4]; 40° C./75% RH, Month 2): 99.63% | Percent Water ([4]; 40° C./75% RH, Month 2): 1.9% | Raman compared with Day 0 ([4]; 40° C./75% RH, Month 2): The same as | 1HNMR compared with Day 0 ([4]; 40° C./75% RH, Month 3): The same as | DSC compared with Day 0 ([4]; 40° C./75% RH, Month 3): The same as | Maximum Impurity Percent ([4]; 40° C./75% RH, Month 3): 0.12% | Percent Purity ([4]; 40° C./75% RH, Month 3): 99.58% | Percent Water ([4]; 40° C./75% RH, Month 3): 1.9% | Raman compared with Day 0 ([4]; 40° C./75% RH, Month 3): The same as | 1HNMR compared with Day 0 ([4]; 40° C./75% RH, Month 6): The same as | DSC compared with Day 0 ([4]; 40° C./75% RH, Month 6): The same as | Maximum Impurity Percent ([4]; 40° C./75% RH, Month 6): 0.14% | Percent Purity ([4]; 40° C./75% RH, Month 6): 99.30% | Percent Water ([4]; 40° C./75% RH, Month 6): 1.9% | Raman compared with Day 0 ([4]; 40° C./75% RH, Month 6): The same as | Rate of degradation ([4]; stored for 6 months at 25 and 40° C.): minimal | Appearance in solubility test ([5]; FaSSIF): Turbid | Solubility descriptive term ([5]; FaSSIF): Slightly | Appearance in solubility test ([5]; FeSSIF): Turbid | Solubility descriptive term ([5]; FeSSIF): Slightly | Appearance in solubility test ([5]; SGF): Turbid | Solubility descriptive term ([5]; SGF): Soluble | Appearance in solubility test ([5]; Water): Turbid | Solubility descriptive term ([5]; Water): Soluble | Times more soluble in water compared to Compound 1 ([5]; Water): up to 43 times | Times more soluble than Compound 1 under SGF conditions ([5]; simulated gastric fluid (SGF)): over 6 times | Hygroscopicity [6]: not hydroscopic; also recorded: non-hygroscopic | Physical/chemical stability and appearance on storage ([6]; 25° C./60% RH, 14 days): stable white solid | AUC(0-t) ([7]; 30 mg/kg): 1300 ng·h/mL | AUC(0-t) ([7]; 100 mg/kg): 10200 ng·h/mL | Cmax ([7]; 100 mg/kg): 8120 ng/mL | Tmax ([7]; 100 mg/kg): 0.5 to 1 h | AUC(0-t) ([7]; 300 mg/kg): 44300 ng·h/mL | Cmax ([7]; 300 mg/kg): 21300 ng/mL | Tmax ([7]; 300 mg/kg): 204 h | Vomiting (animals affected) ([7]; dogs, high dose group): 5/5 | Dose proportionality of Compound 1 exposures ([7]; dogs, single oral doses of Compound 2): supra-proportional | Mean Dose-normalized AUC(0-4hr) for Compound 1 [8]: 1.0 µM·h | Mean maximum HCV RNA reduction (HCV RNA (GT1-HCV); 24 hours post-dose, single 100 mg dose): 0.8 log10 IU/mL | Mean maximum HCV RNA reduction (HCV RNA (GT1-HCV); 24 hours post-dose, single 300 mg dose): 1.7 log10 IU/mL | Mean maximum HCV RNA reduction (HCV RNA (GT1-HCV); single 400 mg dose): 2.2 log10 IU/mL
